Measurements published in paper PMC10895668, “Lead Optimization of the 5-Phenylpyrazolopyrimidinone NPD-2975 toward Compounds with Improved Antitrypanosomal Efficacy” (Journal of Medicinal Chemistry, 2024).
Like-named read-outs stand apart in the source and are kept apart here.

Legend:
T. b. brucei [1] = test: Trypanosoma susceptibility assay (resazurin viability); type: cell-based
Protocol: (§1) The antiparasitic assays were carried out exactly as described in Blaazer et al.([39]) Metabolic stability, pharmacokinetics, acute mouse infection model results were collected as described previously.[21] All animal experiments were conducted in compliance with institutional guidelines and following approval by the Ethical Committee of the University of Antwerp, Belgium [UA-ECD 2014–96]. Female Swiss mice (15–20 g), were purchased from Janvier (Le Genest Saint Isle, France). […] Animals were treated PO b.i.d. for 5 days at 25 and 50 mg/kg 31c. For the SL-RNA qPCR experiments blood was collected sublingually and subjected to erythrocyte lysis before extracting RNA with the QIAamp RNA Blood Mini kit (Qiagen). […] Small pieces of fat, brain, and spleen tissue were excised and immediately transferred to RNA later (Qiagen) and incubated overnight at 4 °C. RNA extraction was performed as instructed in the RNeasy Mini Plus Kit manual (Qiagen). The one-step SensiFAST SYBR Hi-Rox PCR kit (Bioline USA Inc., via Gentaur Belgium BVBA, Kampenhout, Belgium) was used for the PCR with the following forward and reverse primers, respectively 5′-[…]-3′ and 5′-[…]-3′. An initial activation step of 10 min at 45 °C and 10 min at 95 °C was used, followed by the amplification step for 40 cycles (15 s at 95 °C, 15 s 50 °C and 15 s at 60 °C). At last, the melting curves were generated with an increment of 0.3 °C (15 s at 95 °C 1 min at 45 °C and 15 s at 95 °C). The PCR was run on the Step One Plus real-time PCR system (Applied Biosystems, California, USA). An additional qPCR was performed with the mouse housekeeping gene Eef2 to confirm successful RNA extraction.
In vitro experiments were carried out with the bloodstream form of the T. b. brucei Squib strain (suramin-sensitive). Parasites were routinely cultured in T25 culture flasks containing 10 mL of HMI-9 medium (Invitrogen) supplemented with 10% heat-inactivated fetal bovine serum (Life Technologies) and 2.5 μg/mL Geneticin (Life Technologies). MRC-5SV2 cells were cultured in MEM + Earl’s salts-medium, supplemented with 2 mM L-glutamine, 16.5 mM NaHCO3, and 5% inactivated fetal calf serum. All cultures and assays were conducted at 37 °C under an atmosphere of 5% CO2.
(§2) Parasites were counted in a KOVA counting chamber and diluted to 1.5 × 10^4 parasites/well of a 96-well plate (200 μL total volume), upon which the prediluted test compounds were added. Drug exposure covered a 72 h period without renewal of the culture medium. After 3 days of incubation, parasite growth was assessed fluorimetrically after addition of 50 μL of resazurin per well. After 6 h (T. b. rhodesiense) or 24 h (T. b. brucei) at 37 °C, fluorescence is measured (λex 550 nm, λem 590 nm). Parasite viability was assessed using the resazurin viability assay, and drug activity was calculated as percentage viability reduction compared to nontreated controls.

MRC-5 cells [2] = test: MRC-5SV2 cytotoxicity assay; type: cell-based; conditions: Homo sapiens, MRC5, 72 h; cytotoxicity, 3 days incubation; mean ± SD, n ≥ 2; read-out: pIC50 MRC-5 (converted)
Protocol: The synthesized analogues were tested against T. b. brucei, and inhibition of MRC-5 (human lung fibroblasts MRC-5SV40) cell proliferation was included as cytotoxicity control. […] Analogue 17 with an amino group instead of the carbonyl group was prepared to improve solubility for further modification. […] In vitro experiments were carried out with the bloodstream form of the T. b. brucei Squib strain (suramin-sensitive). […] All cultures and assays were conducted at 37 °C under an atmosphere of 5% CO2. […] Cell growth is compared to untreated-control wells (100% cell growth) and medium-control wells (0% cell growth). […] After 4 h at 37 °C, fluorescence is measured (λex 550 nm, λem 590 nm). The results are expressed as % reduction in cell growth/viability compared to control wells and an IC50 and an IC90 (50 and 90% inhibitory concentrations) are determined.

T. b. rhodesiense = test: Trypanosoma susceptibility assay (resazurin viability); type: cell-based; conditions: Trypanosoma brucei, mean ± SD, n ≥ 2, read-out: pIC50 T. b. rhodesiense (converted)
Protocol: The antiparasitic assays were carried out exactly as described in Blaazer et al.([39]) Metabolic stability, pharmacokinetics, acute mouse infection model results were collected as described previously.[21] All animal experiments were conducted in compliance with institutional guidelines and following approval by the Ethical Committee of the University of Antwerp, Belgium [UA-ECD 2014–96]. Female Swiss mice (15–20 g), were purchased from Janvier (Le Genest Saint Isle, France). […] Animals were treated PO b.i.d. for 5 days at 25 and 50 mg/kg 31c. For the SL-RNA qPCR experiments blood was collected sublingually and subjected to erythrocyte lysis before extracting RNA with the QIAamp RNA Blood Mini kit (Qiagen). […]
as §2, with “Drug exposure covered a 72 h period without renewal of the culture medium.” left out

Trypanosoma cruzi = test: Antiparasitic assay, T. cruzi; type: cell-based; conditions: mean ± SD, n ≥ 2, read-out: pIC50 T. cruzi (converted)
Protocol: (§3) First, they were tested in vitro against the protozoan species Trypanosoma cruzi and Leishmania infantum and the clinically relevant T. b. rhodesiense.
as §1, with “An initial activation step of 10 min at 45 °C and 10 min at 95 °C was used, followed by the amplification step for 40 cycles (15 s at 95 °C, 15 s 50 °C and 15 s at 60 °C). At last, the melting curves were generated with an increment of 0.3 °C (15 s at 95 °C 1 min at 45 °C and 15 s at 95 °C). The PCR was run on the Step One Plus real-time PCR system (Applied Biosystems, California, USA). An additional qPCR was performed with the mouse housekeeping gene Eef2 to confirm successful RNA extraction.” left out

Leishmania infantum = test: Antiparasitic assay, L. infantum; type: cell-based; conditions: mean ± SD, n ≥ 2, read-out: pIC50 L. infantum (converted)
Protocol: as §3
as §1, with “An initial activation step of 10 min at 45 °C and 10 min at 95 °C was used, followed by the amplification step for 40 cycles (15 s at 95 °C, 15 s 50 °C and 15 s at 60 °C). At last, the melting curves were generated with an increment of 0.3 °C (15 s at 95 °C 1 min at 45 °C and 15 s at 95 °C). The PCR was run on the Step One Plus real-time PCR system (Applied Biosystems, California, USA). An additional qPCR was performed with the mouse housekeeping gene Eef2 to confirm successful RNA extraction.” left out

[3] = tested on: peritoneal mouse macrophages (PMM); test: Cytotoxicity on peritoneal mouse macrophages; type: cell-based; conditions: Macrophage, n ≥ 2
[4] = mouse, microsomes
[5] = human, microsomes, 1 h
in vivo = conditions: female, Swiss, mouse, in vivo
Protocol: as §1
Blood drops were sampled before treatment and at 0.5, 1, 2, 4, 6, and 24 h after PO dosage; samples after IP dosage were identical with an additional time point of 0.25 h. The blood drops were analyzed adopting the dry blood spot technique and analysis by LC-MS^2. Briefly, blood was collected from the retro-orbital complex using capillary tubes and dropped (15 μL) on WhatmanFTADMPK cards (B). The spots were left to air-dry at room temperature for at least 2 h. For analysis, a 6 mm disk was punched out and extracted in 75:25 MeCN/water containing the internal standard tolbutamide. The amount of parent compound was determined using liquid chromatography (UPLC) (Waters Aquity) coupled with tandem quadrupole mass spectrometry (MS^2) (Waters Xevo) equipped with an electrospray ionization (ESI) interface and operated in multiple reaction monitoring mode. Standard curves in whole blood were made for calibration and validation. Standard PK parameters were determined using Topfit software.
Brain tissue of the animals was collected on ice at autopsy 24 h post-treatment (50 mg/kg oral dose) after perfusion. […] The tissues were immediately homogenized using a GentleMacs tissue homogenizer. The tissue samples were subjected to protein precipitation by adding MeCN, followed by a centrifugation step at 4 °C for 5 min at 21, 130 g. The supernatant was further diluted in 75:25 MeCN/water for LC-MS^2 analysis as described above.

T. b. brucei [6] = tested on: T. b. brucei; design: method as in PMID 37471520; conditions: previous in vivo results ref 21, cited from earlier work
MRC-5 cells [7] = conditions: Figure 1; previously reported series ref 21; cited from earlier work

Structure (SMILES)	improved potency compared to 2 (T. b. brucei [1]; T. brucei, versus compound 2)	IC50 (T. b. brucei [1]; Trypanosoma brucei, 72 h, T. b. brucei Squib bloodstream form, 72 h exposure, mean ± SD, n ≥ 2, read-out: pIC50 T. brucei (converted))	IC50 (MRC-5 cells [2])	IC50 (T. b. rhodesiense)	IC50 (Trypanosoma cruzi)	IC50 (Leishmania infantum)	IC50 [3]	time within which compound was metabolized [4]	parent compound remaining ([4]; 1 h)	parent compound remaining [5]	Tmax at 24 h (in vivo; ip, 10 mg/kg)	Tmax at 24 h (in vivo; po, 50 mg/kg)	survival (T. b. brucei [6]; 25 mg/kg group)	survival (T. b. brucei [6]; 50 mg/kg dose)	MRC-5 pIC50 (MRC-5 cells [7])
O=c1[nH]c(-c2ccc(F)cc2)nc2c(C3CCCC3)n[nH]c12 [31a, 3-Cyclopentyl-5-(4-fluorophenyl)-1,6-dihydro-7H-pyrazolo[4,3-d]pyrimidin-7-one]	6 fold	10 nM	> 63.1 µM	10 nM	> 63.1 µM	> 63.1 µM	> 63.1 µM	≤ 15 min	at least 69%	at least 69%					
CC(C)c1n[nH]c2c(=O)[nH]c(-c3ccc(F)cc3)nc12 [compound 2]			> 63.1 µM				> 63.1 µM				0.25 h	3 ± 1.5 h	all animals died at 11 days postinfection	all animals survived until the end of the experiment	< 4.2
